Our source for the IC50 values is US20240409585A1, “MACROCYCLIC IMMUNOMODULATORS” (priority 2021, published 2024).

SMILES strings stand for the structures. Where two headings read alike, the source gives them in different places. Bridge positions count the residues as written; N and C are the ends. Square brackets hold non-standard residues; d marks the D form. Peptide text beside a SMILES is read from it. * marks the point of attachment. ξ: configuration not given here. Phe(4-COOH) = N[C@@H](Cc1ccc(C(=O)O)cc1)C(=O)O; Bip = N[C@@H](Cc1ccc(-c2ccccc2)cc1)C(=O)O; Phe(3-Me) = Cc1cccc(C[C@H](N)C(=O)O)c1; Val(3-OH) = CC(C)(O)[C@H](N)C(=O)O; 3Pal = N[C@@H](Cc1cccnc1)C(=O)O; 4Pal = N[C@@H](Cc1ccncc1)C(=O)O; 2Thi = N[C@@H](Cc1cccs1)C(=O)O; 3Thi = N[C@@H](Cc1ccsc1)C(=O)O; Cha = N[C@@H](CC1CCCCC1)C(=O)O; Ile(3ξ) = CCC(C)[C@H](N)C(=O)O; Thr(3ξ) = CC(O)[C@H](N)C(=O)O; dOrn = NCCC[C@@H](N)C(=O)O; ξCha = NC(CC1CCCCC1)C(=O)O; Carboxymethyl = O=C(O)C*; NMeA = CN[C@@H](C)C(=O)O; Pra = C#CC[C@H](N)C(=O)O; Dab = NCC[C@H](N)C(=O)O; Dap = NC[C@H](N)C(=O)O; Piv = CC(C)(C)C(=O)*

The experiment has as its target T1, PE-labeled human PD-L1-Ig binding to Jurkat cell line over-expressing human PD-1 (Jurkat-PD-1) (Homo sapiens, UniProt Q15116).
T1 construct: expressed in transfected cells; host or cells: Jurkat
The experiment in a line: Jurkat-PD-1 Cell Binding High-Content Screening Assay (CBA): Method 1.

The mark [1] stands for this setting: Jurkat-hPD-1 cells, PE-labeled PD-L1-Ig 20 nM final, read-out: Jurkat HPDL1 PD1 IC50 (uM) (Method 1).

T1 sequence (Q15116 25-288): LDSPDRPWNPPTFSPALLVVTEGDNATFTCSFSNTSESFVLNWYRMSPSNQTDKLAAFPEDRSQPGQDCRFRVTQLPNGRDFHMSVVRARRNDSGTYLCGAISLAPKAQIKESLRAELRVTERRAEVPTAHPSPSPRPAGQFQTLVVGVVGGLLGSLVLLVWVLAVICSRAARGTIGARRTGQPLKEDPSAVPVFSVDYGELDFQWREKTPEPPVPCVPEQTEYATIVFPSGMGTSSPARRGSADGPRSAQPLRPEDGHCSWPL

For the molecule `CC(C)C[C@@H]1NC(=O)[C@H](CCN)NC(=O)[C@@H](CC(C)C)NC(=O)[C@H](C)N(C)C(=O)[C@H](CCCNC(=N)N)NC(=O)[C@H](Cc2ccc(-c3ccccc3)cc2)NC(=O)[C@H](C(C)C)NC(=O)[C@H](Cc2c[nH]c3ccccc23)NC(=O)[C@H](CC(=O)O)NC(=O)[C@H](Cc2ccc(OCC(=O)O)cc2)NC(=O)[C@H](Cc2cccnc2)NC(=O)CSC[C@@H](C(=O)N[C@@H](C)C(N)=O)NC(=O)[C@H]([C@@H](C)O)NC(=O)[C@H](C(C)C)NC1=O` [Compound 1158] ({CH2CO}-[3Pal]Y(Carboxymethyl)DWV[Bip]R[NMeA][dL][Dab]LVTCA-NH2; thioether N-14), the IC50 under setting [1] came to 0.03 µM.

On to `Cc1cccc(C[C@@H]2NC(=O)[C@H](CC(=O)O)NC(=O)[C@H](Cc3ccc(OCC(=O)O)cc3)NC(=O)[C@H](Cc3ccncc3)NC(=O)CSC[C@@H](C(=O)N[C@@H](CCN)C(N)=O)NC(=O)[C@H](CCC(=O)O)NC(=O)[C@H](C(C)(C)O)NC(=O)[C@H](CC3CCCCC3)NC(=O)[C@H](CCN)NC(=O)[C@@H](CC(C)C)NC(=O)[C@H](C)N(C)C(=O)[C@H](Cc3ccc(OCC(=O)O)cc3)NC(=O)[C@H](Cc3ccc(-c4ccccc4)cc3)NC(=O)[C@H](Cc3ccc(OCC(=O)O)cc3)NC2=O)c1` [Compound 2188] ({CH2CO}-[4Pal]Y(Carboxymethyl)D[Phe(3-Me)]Y(Carboxymethyl)[Bip]Y(Carboxymethyl)[NMeA][dL][Dab][Cha][Val(3-OH)]EC[Dab]-NH2; thioether N-14), for which the IC50 under setting [1] amounted to 0.02 µM.

`CC(C)C[C@@H]1NC(=O)[C@H](CCCCN)NC(=O)[C@@H](CC(C)C)NC(=O)[C@H](C)N(C)C(=O)[C@H](Cc2cnc[nH]2)NC(=O)[C@H](Cc2ccc(-c3ccccc3)cc2)NC(=O)[C@H](C(C)C)NC(=O)[C@H](Cc2c[nH]c3ccccc23)NC(=O)[C@H](CC(=O)O)NC(=O)[C@H](Cc2ccc(O)cc2)NC(=O)[C@H](CC(N)=O)NC(=O)CSC[C@@H](C(=O)NCC(N)=O)NC(=O)[C@H]([C@@H](C)O)NC(=O)[C@H](C(C)C)NC1=O` [Compound 1484] ({CH2CO}-NYDWV[Bip]H[NMeA][dL]KLVTCG-NH2; thioether N-14): under setting [1], the IC50 stood at 0.07 µM.

`CCC(C)[C@@H]1NC(=O)[C@H](Cc2ccc(-c3ccccc3)cc2)NC(=O)[C@H](C(C)C)NC(=O)[C@H](Cc2c[nH]c3ccccc23)NC(=O)[C@H](CC(=O)O)NC(=O)[C@H](Cc2ccc(C(=O)O)cc2)NC(=O)[C@H](Cc2ccc(OCC(=O)O)cc2)NC(=O)CSC[C@@H](C(=O)NCC(=O)N[C@@H](CN)C(=O)O)NC(=O)[C@H](C(C)O)NC(=O)[C@H](C(C)C)NC(=O)[C@H](CC2CCCCC2)NC(=O)[C@H](CC(N)=O)NC(=O)[C@@H](CC(C)C)NC(=O)[C@H](C)N(C)C1=O` (stereo partly drawn) [Compound 2005] ({CH2CO}-Y(Carboxymethyl)[Phe(4-COOH)]DWV[Bip][Ile(3ξ)][NMeA][dL]N[Cha]V[Thr(3ξ)]CG[Dap]-OH; thioether N-14): the IC50 under setting [1] stood at 0.02 µM.

Take `Cc1cccc(C[C@@H]2NC(=O)[C@H](CC(=O)O)NC(=O)[C@H](Cc3ccc(OCC(=O)O)cc3)NC(=O)[C@H](Cc3ccc(OCC(=O)O)cc3)NC(=O)CSC[C@@H](C(N)=O)NC(=O)[C@H](CC(=O)O)NC(=O)[C@H](C(C)C)NC(=O)[C@H](CC3CCCCC3)NC(=O)[C@H](CCN)NC(=O)[C@@H](CC(C)C)NC(=O)[C@H](C)N(C)C(=O)[C@H](Cc3ccc(OCC(=O)O)cc3)NC(=O)[C@H](Cc3ccc(-c4ccccc4)cc3)NC(=O)[C@H](Cc3ccc(OCC(=O)O)cc3)NC2=O)c1` [Compound 1654] ({CH2CO}-Y(Carboxymethyl)Y(Carboxymethyl)D[Phe(3-Me)]Y(Carboxymethyl)[Bip]Y(Carboxymethyl)[NMeA][dL][Dab][Cha]VDC-NH2; thioether N-14): the IC50 under setting [1] worked out at 0.08 µM.

As to `CC(=O)NCCCC[C@@H]1NC(=O)[C@H](C(C)C)NC(=O)[C@H](CC2CCCCC2)NC(=O)[C@H](CCN)NC(=O)[C@@H](CC(C)C)NC(=O)[C@H](C)N(C)C(=O)[C@H](CCC(N)=O)NC(=O)[C@H](Cc2ccc(-c3ccccc3)cc2)NC(=O)[C@H](C(C)C)NC(=O)[C@H](Cc2c[nH]c3ccccc23)NC(=O)[C@H](CC(=O)O)NC(=O)[C@H](Cc2ccc(OCC(=O)O)cc2)NC(=O)[C@H](Cc2ccsc2)NC(=O)CSC[C@@H](C(=O)N[C@@H](CCN)C(N)=O)NC1=O` [Compound 2127] ({CH2CO}-[3Thi]Y(Carboxymethyl)DWV[Bip]Q[NMeA][dL][Dab][Cha]VK(Ac)C[Dab]-NH2; thioether N-14), the IC50 under setting [1] came out at 0.01 µM.

`CC[C@H](C)[C@@H]1NC(=O)[C@H](Cc2ccc(-c3ccccc3)cc2)NC(=O)[C@H](C(C)(C)O)NC(=O)[C@H](Cc2cccc(C)c2)NC(=O)[C@H](CC(=O)O)NC(=O)[C@H](Cc2ccc(O)cc2)NC(=O)[C@H](CC(N)=O)NC(=O)CSC[C@@H](C(=O)N[C@@H](CCN)C(N)=O)NC(=O)[C@H]([C@@H](C)O)NC(=O)[C@H](C(C)C)NC(=O)[C@H](CC(C)C)NC(=O)[C@H](CCN)NC(=O)[C@@H](CC(C)C)NC(=O)[C@H](C)N(C)C1=O` [Compound 1686] ({CH2CO}-NYD[Phe(3-Me)][Val(3-OH)][Bip]I[NMeA][dL][Dab]LVTC[Dab]-NH2; thioether N-14): the IC50 under setting [1] came to 0.16 µM.

As for `Cc1cccc(C[C@@H]2NC(=O)[C@H](CC(=O)O)NC(=O)[C@H](Cc3ccc(OCC(=O)O)cc3)NC(=O)[C@H](C(C)O)NC(=O)CSC[C@@H](C(=O)N[C@@H](CO)C(=O)NCC(=O)N[C@@H](CO)C(N)=O)NC(=O)[C@H](C(C)O)NC(=O)[C@H](C(C)C)NC(=O)C(CC3CCCCC3)NC(=O)[C@H](CCN)NC(=O)[C@@H](CC(C)C)NC(=O)[C@H](C)N(C)C(=O)[C@H](Cc3ccc(OCC(=O)O)cc3)NC(=O)[C@H](Cc3ccc(-c4ccccc4)cc3)NC(=O)[C@H](Cc3ccc(C(=O)O)cc3)NC2=O)c1` (stereo partly drawn) [Example 5004] ({CH2CO}-[Thr(3ξ)]Y(Carboxymethyl)D[Phe(3-Me)][Phe(4-COOH)][Bip]Y(Carboxymethyl)[NMeA][dL][Dab][ξCha]V[Thr(3ξ)]CSGS-NH2; thioether N-14), for the setting “Jurkat-PD-1 cells, PE-labeled PD-L1-Ig, μM, read-out: CBA Method 1 μM”, the IC50 was 0.03 µM.

With `CC(C)C[C@@H]1NC(=O)[C@H](Cc2c[nH]c3ccccc23)NC(=O)[C@H](CC(=O)O)NC(=O)[C@H](Cc2ccc(C(=O)O)cc2)NC(=O)[C@H](Cc2ccc(OCC(=O)O)cc2)NC(=O)CSC[C@@H](C(=O)N[C@@H](CCN)C(N)=O)NC(=O)[C@H](CO)NC(=O)[C@H](C(C)(C)O)NC(=O)[C@H](CC2CCCCC2)NC(=O)[C@H](CCN)NC(=O)[C@@H](CC(C)C)NC(=O)[C@H](C)N(C)C(=O)[C@H](C(C)(C)O)NC(=O)[C@H](Cc2ccc(-c3ccccc3)cc2)NC1=O` [Compound 1716] ({CH2CO}-Y(Carboxymethyl)[Phe(4-COOH)]DWL[Bip][Val(3-OH)][NMeA][dL][Dab][Cha][Val(3-OH)]SC[Dab]-NH2; thioether N-14), the IC50 under setting [1] was determined as 0.01 µM.

On to `Cc1cccc(C[C@@H]2NC(=O)[C@H](CC(=O)O)NC(=O)[C@H](Cc3ccc(OCC(=O)O)cc3)NC(=O)[C@H](Cc3ccncc3)NC(=O)CSC[C@@H](C(=O)N[C@@H](CCN)C(N)=O)NC(=O)[C@H](CO)NC(=O)[C@H](C(C)C)NC(=O)[C@H](CC3CCCCC3)NC(=O)[C@H](CCN)NC(=O)[C@@H](CC(C)C)NC(=O)[C@H](C)N(C)C(=O)[C@H](Cc3ccc(OCC(=O)O)cc3)NC(=O)[C@H](Cc3ccc(-c4ccccc4)cc3)NC(=O)[C@H](Cc3ccc(OCC(=O)O)cc3)NC2=O)c1` [Compound 1860] ({CH2CO}-[4Pal]Y(Carboxymethyl)D[Phe(3-Me)]Y(Carboxymethyl)[Bip]Y(Carboxymethyl)[NMeA][dL][Dab][Cha]VSC[Dab]-NH2; thioether N-14), for which the IC50 under setting [1] was determined as 0.01 µM.

`C#CC[C@H](NC(=O)[C@@H](C)NC(=O)[C@@H]1CSCC(=O)N[C@@H]([C@@H](C)O)C(=O)N[C@@H](Cc2ccc(OCC(=O)O)cc2)C(=O)N[C@@H](CC(=O)O)C(=O)N[C@@H](Cc2cccc(C)c2)C(=O)N[C@@H](Cc2ccc(OCC(=O)O)cc2)C(=O)N[C@@H](Cc2ccc(-c3ccccc3)cc2)C(=O)N[C@@H](Cc2ccc(OCC(=O)O)cc2)C(=O)N(C)[C@@H](C)C(=O)N[C@H](CC(C)C)C(=O)N[C@@H](CCN)C(=O)N[C@@H](CC2CCCCC2)C(=O)N[C@@H](C(C)(C)O)C(=O)N[C@@H](CCC(=O)O)C(=O)N1)C(=O)O` [Compound 1944] ({CH2CO}-TY(Carboxymethyl)D[Phe(3-Me)]Y(Carboxymethyl)[Bip]Y(Carboxymethyl)[NMeA][dL][Dab][Cha][Val(3-OH)]EC[dA][Pra]-OH; thioether N-14): the IC50 under setting [1] is 0.9 µM.

With `Cc1cccc(C[C@@H]2NC(=O)[C@H](CC(=O)O)NC(=O)[C@H](Cc3ccc(OCC(=O)O)cc3)NC(=O)[C@H](Cc3cccs3)NC(=O)CSC[C@@H](C(=O)N[C@@H](CCNC(=O)C(C)(C)C)C(N)=O)NC(=O)[C@H](Cc3cnc[nH]3)NC(=O)[C@H](C(C)(C)O)NC(=O)[C@H](CC3CCCCC3)NC(=O)[C@H](CCN)NC(=O)[C@@H](CC(C)C)NC(=O)[C@H](C)N(C)C(=O)[C@H](Cc3ccc(OCC(=O)O)cc3)NC(=O)[C@H](Cc3ccc(-c4ccccc4)cc3)NC(=O)[C@H](Cc3ccc(C(=O)O)cc3)NC2=O)c1` [Compound 2166] ({CH2CO}-[2Thi]Y(Carboxymethyl)D[Phe(3-Me)][Phe(4-COOH)][Bip]Y(Carboxymethyl)[NMeA][dL][Dab][Cha][Val(3-OH)]HC[Dab](Piv)-NH2; thioether N-14), the IC50 under setting [1] stood at 0.02 µM.

For the molecule `CC(=O)NCCCC[C@@H]1NC(=O)[C@H](C(C)C)NC(=O)[C@H](CC2CCCCC2)NC(=O)[C@H](CCN)NC(=O)[C@@H](CC(C)C)NC(=O)[C@H](C)N(C)C(=O)[C@H](CCC(N)=O)NC(=O)[C@H](Cc2ccc(-c3ccccc3)cc2)NC(=O)[C@H](C(C)C)NC(=O)[C@H](Cc2cccc(C)c2)NC(=O)[C@H](CC(=O)O)NC(=O)[C@H](Cc2ccc(OCC(=O)O)cc2)NC(=O)[C@H](Cc2ccc(OCC(=O)O)cc2)NC(=O)CSC[C@@H](C(=O)N[C@H](CCCN)C(N)=O)NC1=O` [Compound 2155] ({CH2CO}-Y(Carboxymethyl)Y(Carboxymethyl)D[Phe(3-Me)]V[Bip]Q[NMeA][dL][Dab][Cha]VK(Ac)C[dOrn]-NH2; thioether N-14), the IC50 under setting [1] is 0.01 µM.
